Data set [1] is described as follows: Antiproliferative activity against wild type human A431 cells after 48 hrs by MTT assay. The class given is functional, cell-based. The note with it: A-431, 48 h. (In general: Tetrazolium assays rely on reduction of a dye to a coloured formazan, in cell work by metabolically active cells.)
The target in data set [2] is Epidermal growth factor receptor (Homo sapiens, UniProt P00533). The class given is ADME, cell-based, Sf9.
Description: Inhibition of human recombinant N-terminal GST-tagged wild type EGFR cytoplasmic domain (695 end residues) autophosphorylation expressed in baculovirus infected Sf9 insect cells by ADP-Glo luminescence assay
A short description of data set [3]: Antiproliferative activity against NHBE cells after 48 hrs by MTT assay. The note with it: Homo sapiens. The format is ADME, cell-based.
Data set [4] is described as follows: cells. The format is functional, cell-based. The note with it: Homo sapiens, NCI-H1975, 48 h.
The conditions of data set [5]: human.
The target of data set [6] is Epidermal growth factor receptor (Homo sapiens, UniProt P00533, L858R/T790M). Nature of the data set: biochemical. The class given is cell-based, Sf9.
The nature of data set [7]: Antiproliferative activity against human A549 cells harboring K-ras mutation after 48 hrs by MTT assay. The class given is functional, cell-based. The note with it: A549, 48 h.
Data set [8] has as its system NCI-H1975. Nature of the data set: Potency index, ratio of gefitinib IC50 to compound IC50 against human NCI-H1975 cells harboring L858R/T790M double mutant. The format is functional.
The test system of data set [9] is NCI-H1975. Nature of the data set: Induction of apoptosis in human NCI-H1975 cells harboring L858R/T790M double mutant assessed as early apoptotic cells at 500 nM after 48 hrs by annexin V-FITC/PI staining based flow cytometric analysis (reference value: 2%). The format is functional.
Data set [10] concerns NCI-H1975. Nature of the data set: Induction of apoptosis in human NCI-H1975 cells harboring L858R/T790M double mutant assessed as late apoptotic cells at 500 nM after 48 hrs by annexin V-FITC/PI staining based flow cytometric analysis (reference value: 3.4%). The format is functional. (In general: Flow cytometry measures light scatter and fluorescence of single cells or particles in a stream.)

In data set [11] the test system is NCI-H1975. Nature of the data set: Induction of apoptosis in human NCI-H1975 cells harboring L858R/T790M double mutant after 48 hrs by annexin V-FITC/PI staining based flow cytometric analysis. The format is functional, cell-based.
The subject of data set [12] is Epidermal growth factor receptor (Homo sapiens), P00533 [L858R,T790M]. Nature of the data set: Potency index, ratio of rociletinib IC50 to compound IC50 for human recombinant N-terminal GST-tagged EGFR T790M/L858R double mutant cytoplasmic domain (695 end residues) autophosphorylation expressed in baculovirus infected Sf9 insect cells.
Data set [13] relates to NCI-H1975. Nature of the data set: Induction of apoptosis in human NCI-H1975 cells harboring L858R/T790M double mutant assessed as necrotic cells at 500 nM after 48 hrs by annexin V-FITC/PI staining based flow cytometric analysis (reference value: 0.4%). The format is functional.
Data set [14] has as its system NCI-H1975. Nature of the data set: Induction of apoptosis in human NCI-H1975 cells harboring L858R/T790M double mutant assessed as viable cells at 50 nM after 48 hrs by annexin V-FITC/PI staining based flow cytometric analysis (reference value: 94.2%). The class given is functional. The note with it: NCI-H1975, 48 h, read-out: Activity.
Data set [15] deals with NCI-H1975. Nature of the data set: Induction of apoptosis in human NCI-H1975 cells harboring L858R/T790M double mutant assessed as necrotic cells at 200 nM after 48 hrs by annexin V-FITC/PI staining based flow cytometric analysis (reference value: 0.4%). The class given is functional.
Data set [16] concerns NCI-H1975. Nature of the data set: Induction of apoptosis in human NCI-H1975 cells harboring L858R/T790M double mutant assessed as early apoptotic cells at 50 nM after 48 hrs by annexin V-FITC/PI staining based flow cytometric analysis (reference value: 2%). The class given is functional.
The subject of data set [17] is NCI-H1975. Nature of the data set: Induction of apoptosis in human NCI-H1975 cells harboring L858R/T790M double mutant assessed as early apoptotic cells at 200 nM after 48 hrs by annexin V-FITC/PI staining based flow cytometric analysis (reference value: 2%). The format is functional.
In data set [18] the test system is NCI-H1975. Nature of the data set: Induction of apoptosis in human NCI-H1975 cells harboring L858R/T790M double mutant assessed as late apoptotic cells at 200 nM after 48 hrs by annexin V-FITC/PI staining based flow cytometric analysis (reference value: 3.4%). The format is functional.
The subject of data set [19] is NCI-H1975. Nature of the data set: Induction of apoptosis in human NCI-H1975 cells harboring L858R/T790M double mutant assessed as necrotic cells at 50 nM after 48 hrs by annexin V-FITC/PI staining based flow cytometric analysis (reference value: 0.4%). The class given is functional.
The subject of data set [20] is NCI-H1975. Nature of the data set: Induction of apoptosis in human NCI-H1975 cells harboring L858R/T790M double mutant assessed as viable cells at 500 nM after 48 hrs by annexin V-FITC/PI staining based flow cytometric analysis (reference value: 94.2%). The class given is functional. The note with it: NCI-H1975, 48 h, read-out: Activity.
The subject of data set [21] is NCI-H1975. Nature of the data set: Induction of apoptosis in human NCI-H1975 cells harboring L858R/T790M double mutant assessed as late apoptotic cells at 50 nM after 48 hrs by annexin V-FITC/PI staining based flow cytometric analysis (reference value: 3.4%). The format is functional.
The test system of data set [22] is NCI-H1975. Nature of the data set: Induction of apoptosis in human NCI-H1975 cells harboring L858R/T790M double mutant assessed as viable cells at 200 nM after 48 hrs by annexin V-FITC/PI staining based flow cytometric analysis (reference value: 94.2%). The format is functional. The note with it: NCI-H1975, 48 h, read-out: Activity.

On to `C=CC(=O)Nc1cccc(Nc2nc(Nc3ccc(OCCn4ccnc4)cc3)ncc2Cl)c1`, for which the IC50 in [1] was 1.34 µM; in [2], over 1000 nM; in [3], 39.1 µM; in data set [4] it was 391 nM; in data set [5] it was over 9.43 nM; in data set [6], 106 nM. The molecule also had an IC50 in data set [7] of 8.44 µM.
On to `C=CC(=O)Nc1cccc(Nc2nc(Nc3ccc(Cn4ccnc4)cc3)ncc2Cl)c1`, for which the IC50 in data set [1] is 0.733 µM; in data set [2], 1000 nM; in data set [3], over 40 µM; in [4] it was 118 nM; in data set [5], 299 nM; in data set [6], 3.3 nM. Moreover, the IC50 in data set [7] came out at 2.73 µM. Besides, the results for the “Ratio IC50” value in data set [8] and in data set [12] were 10 and 8, respectively. The Activity in [9] was 56.7%; in [10], 3.7%; in data set [11], “Dose-dependent effect”; in [13], 0.1%; in data set [15] it was 0.1%; in data set [16] it was 16.3%. The Activity in data set [17] was 24.3%; in data set [18] it was 4.2%; in [19], 0.1%; in data set [21], 2.6%. The viability at 0.05 µM in data set [14] is 81%. Besides, the viability at 0.5 µM in data set [20] was 39.6%. The viability at 0.2 µM in [22] was determined as 71.3%.
With `C=CC(=O)Nc1cccc(Nc2nc(Nc3ccc(Cn4ccnc4)cc3OC)ncc2Cl)c1`, the 50% inhibitory concentration (IC50) in data set [1] was 6.78 µM; in [2] it was 506 nM; in data set [3], over 40 µM; in [4], 932 nM; in data set [5] it was 4.64 nM; in data set [6], 109 nM. In [7], this molecule displayed an IC50 of 14.3 µM.
`C=CC(=O)Nc1cccc(Nc2nc(Nc3ccc(OCCn4cncn4)cc3)ncc2Cl)c1`: the IC50 was 5.95 µM in data set [1]; over 1000 nM in [2]; over 40 µM in data set [3]; 2370 nM in [4]; over 9.67 nM in [5]; 103 nM in data set [6]. This molecule also gave an IC50 in [7] of 10.9 µM.
In the case of `C=CC(=O)Nc1cccc(Nc2nc(Nc3ccc(N4CCN(C(C)=O)CC4)cc3OC)ncc2C(F)(F)F)c1` [ROCILETINIB], the IC50 is 1.29 µM in data set [1]; over 40 µM in data set [3]; 137 nM in data set [4]; 21.4 nM in [5]; 6.5 µM in data set [7].
Taken in the same sequence, the figures for `C=CC(=O)Nc1cccc(Nc2nc(Nc3ccc(OCCCn4ccnc4)cc3)ncc2[N+](=O)[O-])c1` were 6.46 µM, 39.2 µM, 8320 nM, over 24.6 nM and 27.4 µM.
Taken in the same sequence, the figures for `C=CC(=O)Nc1cccc(Nc2nc(Nc3ccc(NC(=O)Cn4ccnc4)cc3)ncc2[N+](=O)[O-])c1` were 16.2 µM, over 40 µM, 11500 nM, over 8.43 nM and over 40 µM.
On to `C=CC(=O)Nc1cccc(Nc2nc(Nc3ccc(Cn4ccnc4)cc3)ncc2F)c1`, for which the IC50 in data set [1] was 0.152 µM; in data set [2], 987 nM; in data set [3], over 40 µM; in data set [4] it was 1720 nM; in data set [5], 110 nM; in data set [6] it was 9 nM. Also, in data set [7], the IC50 turned out to be 3.56 µM.
Consider `C=CC(=O)Nc1cccc(Nc2nc(Nc3ccc(-n4ccnc4)cc3)ncc2[N+](=O)[O-])c1`, for which the IC50 was 12.3 µM in [1]; over 1000 nM in data set [2]; over 40 µM in data set [3]; 12600 nM in data set [4]; over 10.2 nM in data set [5]; 98.2 nM in [6]. For the same molecule, in data set [7], the half-maximal inhibitory concentration (IC50) was over 40 µM.
For `C=CC(=O)Nc1cccc(Nc2nc(Nc3ccc(OCCn4ccnc4)cc3)ncc2F)c1`, the half-maximal inhibitory concentration (IC50) in data set [1] was 2.48 µM; in data set [2] it was over 1000 nM; in [3] it was 40 µM; in data set [4] it was 1810 nM; in data set [5], over 110 nM; in data set [6], 9.1 nM. In [7], this molecule yielded an IC50 of 8.37 µM.

For orientation: IC50 means the midpoint of a concentration-inhibition curve.

These data come from ChEMBL document CHEMBL3860065, “Synthesis and biological evaluation of azole-diphenylpyrimidine derivatives (AzDPPYs) as potent T790M mutant form of epidermal growth factor receptor inhibitors” (Bioorg Med Chem, 2016).
